Data reported in patent US20120251551A1, “Substituted (Heteroarylmethyl)thiohydantoins” (BAYER PHARMA AKTIENGESELLSCHAFT, priority 2009, published 2012).
Where two headings read alike, the source gives them in different places.

Columns and labels:
[1] = tested on: VCaP cells; experiment: Proliferation assay with VCaP cells; assay type: cell-based; details: Homo sapiens, 168 h, R1881 (1×10^−10) stimulated growth
In short: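 Cells in DMEM with 10% charcoal-stripped serum treated one day after seeding with R1881 (1×10^−10) plus compound. Cell number read by Alamar Blue fluorescence (ex 530/em 590 nm) at day 0 and day 7; day-7 R1881-only signal defines stimulated growth, day-7 signal without R1881 defines basal level.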

[2] = target: T1, human androgen receptor E709Y mutant (Homo sapiens, UniProt P10275, E710Y); experiment: Cell-based transactivation assay for human androgen receptor mutant E709Y
T1 construct: expressed in transfected cells; host or cells: PC-3 cells, transient transfection with a pSG5-derived plasmid
T1 sequence (P10275 1-920 E710Y): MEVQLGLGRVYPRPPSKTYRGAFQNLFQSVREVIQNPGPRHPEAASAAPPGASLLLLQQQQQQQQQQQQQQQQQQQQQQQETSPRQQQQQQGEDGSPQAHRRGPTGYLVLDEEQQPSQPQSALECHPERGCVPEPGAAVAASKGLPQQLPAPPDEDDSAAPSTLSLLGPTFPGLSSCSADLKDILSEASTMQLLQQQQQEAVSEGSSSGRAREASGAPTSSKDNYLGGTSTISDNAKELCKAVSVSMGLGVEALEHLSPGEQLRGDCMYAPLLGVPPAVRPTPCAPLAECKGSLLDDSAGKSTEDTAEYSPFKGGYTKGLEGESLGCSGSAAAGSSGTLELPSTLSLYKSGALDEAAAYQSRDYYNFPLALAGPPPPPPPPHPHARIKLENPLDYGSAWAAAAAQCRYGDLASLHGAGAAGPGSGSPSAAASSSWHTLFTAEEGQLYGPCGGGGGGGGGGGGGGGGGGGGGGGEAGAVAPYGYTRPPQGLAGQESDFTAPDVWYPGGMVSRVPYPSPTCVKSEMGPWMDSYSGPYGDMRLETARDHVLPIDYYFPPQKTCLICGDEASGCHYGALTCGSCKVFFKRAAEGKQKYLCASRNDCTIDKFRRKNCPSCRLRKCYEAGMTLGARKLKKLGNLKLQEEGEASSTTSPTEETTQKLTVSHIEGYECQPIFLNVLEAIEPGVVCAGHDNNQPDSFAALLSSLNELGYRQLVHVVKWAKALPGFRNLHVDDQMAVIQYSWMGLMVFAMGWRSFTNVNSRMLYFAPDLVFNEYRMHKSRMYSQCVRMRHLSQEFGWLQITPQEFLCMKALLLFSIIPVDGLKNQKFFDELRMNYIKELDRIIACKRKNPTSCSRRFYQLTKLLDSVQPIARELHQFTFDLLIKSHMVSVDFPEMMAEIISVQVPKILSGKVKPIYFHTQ
Experimental: Cell-Based Transactivation Assay for Human Androgen Receptor Mutant E709Y
PC-3 cells (Kaighn et al., Invest. Urol. 17:16-23, 1979) were grown in 5% charcoal-stripped medium and seeded at a concentration of 10000 cells per well in a 96-well plate. They were transiently transfected with a pSG5-derived plasmid (#216201 from Stratagene, La Jolla, Calif., USA) coding for the human androgen receptor E709Y mutant (Georget et al., Molecular Endocrinology, 20(4): 724-734, 2006) and an MMTV-Luciferase reporter plasmid based on pGL4.14 14 (#E6691, Promega Corporation, Madison, Wis., USA). The compound to be tested was added at a concentration range varying from 1×10^−9 to 1×10^−6 M together with 1×10^−10 R1881. After 24 h incubation at 37° C. in a 5% CO2 atmosphere, 100 μl of Steady Glo Lysis and Detection reagent (Steady Glo Luciferase assay system E2550 from Promega Corporation. Madison, Wis., USA) were added. Antagonistic activity was determined by measuring Luciferase activity in a Victor 3 Luminometer (PerkinElmer, Waltham, Mass., USA) using the Steady Glo Luciferase Assay (E2550, Promega). IC50 values were calculated for anti-androgenic activity.

[3] = tested on: LNCaP cells; experiment: Proliferation assay with LNCaP cells; assay type: cell-based; details: Homo sapiens, 168 h, R1881 (1×10^−10) stimulated growth, day 7, read-out: inhibition IC50 (LNCaP)
Experimental: Proliferation Assay with LNCaP Cells
LNCaP cells (Horoszewicz et al., in “Models for Prostate Cancer” (ed. G. P. Murphy), Alan R. Liss, New York 1981, p. 115-132; Horoszewicz et al., Cancer Res. 43:1809-1818, 1983) were seeded at 2000 cells/well in 96-well plates in RPMI (F1235, Biochrom AG, Berlin, Germany) without phenol red supplemented with 5% charcoal-stripped serum. After 3 days, the cells were treated with R1881) (1×10^−10) and compound (day 0). Cell number was determined by Alamar Blue (DAL1100, Invitrogen, Life Technologies, Lohne, Germany) staining (2.5 h) at day 0 and day 7. Fluorescence was determined in Victor3 (Excitation 530 nm; emission 590 nm). Stimulated growth was defined as the signal measured at day 7 for cells treated only with R1881. Basal level was defined as the signal measured at day 7 for cells grown without R1881.

[4] = Determination of metabolic stability in vitro (calculation of hepatic in vivo blood clearance); assay type: in vitro ADME; details: pH 7.4, human liver microsomes, calculated from half-life, read-out: calculated hepatic in vivo blood clearance (CL) (converted)
Experimental: Determination of Metabolic Stability In Vitro (Including Calculation of Hepatic In Vivo Blood Clearance (CL) and of Maximal Oral Bioavailability (Fmax))
The metabolic stability of test compounds in vitro was determined by incubating them at 1 μM with a suspension of human liver microsomes in 100 mM phosphate buffer, pH7.4 (NaH2PO4×H2O+Na2HPO4×2H2O) at a protein concentration of 0.5 mg/ml and at 37° C. The reaction was activated by adding a co-factor mix containing 1.2 mg NADP, 3 IU glucose-6-phosphate dehydrogenase, 14.6 mg glucose-6-phosphate and 4.9 mg MgCl2 in phosphate buffer, pH 7.4. Organic solvent in the incubations was limited to <0.2% dimethylsulfoxide (DMSO) and <1% methanol. During incubation, the microsomal suspensions were continuously shaken and aliquots were taken at 2, 8, 16, 30, 45 and 60 min, to which equal volumes of cold methanol were immediately added. Samples were freezed at −20° C. over night, subsequently centrifuged for 15 minutes at 3000 rpm and the supernatant was analyzed with an Agilent 1200 HPLC-system with LCMS/MS detection.
The half-life of a test compound was determined from the concentration-time plot. From the half-life the intrinsic clearances were calculated. Together with the additional parameters liver blood flow, specific liver weight and microsomal protein content the hepatic in vivo blood clearance (CL) and the maximal oral bioavailability (Fmax) were calculated for the different species. The following parameter values were used: Liver blood flow—1.3 l/h/kg human; specific liver weight—21 g/kg human; microsomal protein content—40 mg/g.
With the described assay only phase-I metabolism of microsomes is reflected, e.g. typically oxidoreductive reactions by cytochrome P450 enzymes and flavin mono-oxygenases (FMO) and hydrolytic reactions by esterases (esters and amides).

[5] = day 7, read-out: Antiproliferative activity VCaP IC50
[6] = day 7, read-out: inhibition IC50 (VCaP)

Compound | IC50 [1, 5] [µM] | IC50 [2] [µM] | IC50 [3] [µM] | CLhep predicted at 1 µM [4] [L/h/kg] | IC50 [1, 6] [µM]
CN1C(=S)N(c2ccc(C#N)c(C(F)(F)F)c2)C(=O)C1(C)C [2-(Trifluoromethyl)-4-(3,4,4-trimethyl-5-oxo-2-thioxoimidazolidin-1-yl)benzonitrile, reference compound] | > 1 | 0.117 |  |  | 
CC1(C)C(=O)N(c2ccc(C#N)c(C(F)(F)F)c2)C(=S)N1CCCCO [4-[3-(4-Hydroxybutyl)-4,4-dimethyl-5-oxo-2-thioxoimidazolidin-1-yl]-2-(trifluoromethyl)benzonitrile, reference compound] | > 1 | > 1 |  |  | 
CC1(C)C(=O)N(c2ccc(C#N)c(C(F)(F)F)c2)C(=S)N1Cc1ccc(F)cc1 [Comparative data^4] | > 1 | > 1 |  |  | 
CC1(C)C(=O)N(c2ccc(C#N)c(C(F)(F)F)c2)C(=S)N1Cc1ccccc1 [Comparative data^4] | > 1 | 0.587 |  |  | 
CC1(C)C(=O)N(c2ccc(C#N)c(C(F)(F)F)c2)C(=S)N1Cc1ccc(-n2ccnc2)nc1 [Example 1, 4-(3-{[6-(1H-Imidazol-1-yl)pyridin-3-yl]methyl}-4,4-dimethyl-5-oxo-2-thioxoimidazolidin-1-yl)-2-(trifluoromethyl)benzonitrile] | 0.291 | 0.00721 | 0.059 | 0.26 | 
CC1(C)C(=O)N(c2ccc(C#N)c(C(F)(F)F)c2)C(=S)N1Cc1ccc(C(F)(F)F)nc1 [Example 2, 4-(4,4-Dimethyl-5-oxo-2-thioxo-3-{[6-(trifluoromethyl)pyridin-3-yl]methyl}imidazolidin-1-yl)-2-(trifluoromethyl)benzonitrile] | 0.247 | 0.0142 | 0.314 | 0.39 | 
CC1(C)C(=O)N(c2ccc(C#N)c(C(F)(F)F)c2)C(=S)N1Cc1ccc(N2CCOCC2)nc1 [Example 4, 4-(4,4-Dimethyl-3-{[6-(morpholin-4-yl)pyridin-3-yl]methyl}-5-oxo-2-thioxoimidazolidin-1-yl)-2-(trifluoromethyl)benzonitrile] | 0.124 | 0.0772 | 0.117 |  | 0.124
CC1(C)C(=O)N(c2ccc(C#N)c(C(F)(F)F)c2)C(=S)N1Cc1ccc(N2CCS(=N)(=O)CC2)nc1 [Example 9, 4-(3-{[6-(1-Imino-1-oxido-1λ^6-thiomorpholin-4-yl)pyridin-3-yl]methyl}-4,4-dimethyl-5-oxo-2-thioxoimidazolidin-1-yl)-2-(trifluoromethyl)benzonitrile] |  | 0.00565 | 0.303 | 0.48 | 
CC(C)(O)COc1ccc(CN2C(=S)N(c3ccc(C#N)c(C(F)(F)F)c3)C(=O)C2(C)C)cn1 [Example 10, 4-(3-{[6-(2-Hydroxy-2-methylpropoxy)pyridin-3-yl]methyl}-4,4-dimethyl-5-oxo-2-thioxoimidazolidin-1-yl)-2-(trifluoromethyl)benzonitrile] | 0.229 | 0.0263 | 0.283 | 0.35 | 0.229
Cc1nc(C(F)(F)F)ccc1CN1C(=S)N(c2ccc(C#N)c(C(F)(F)F)c2)C(=O)C1(C)C [Example 13, 4-(4,4-Dimethyl-3-{[2-methyl-6-(trifluoromethyl)pyridin-3-yl]methyl}-5-oxo-2-thioxoimidazolidin-1-yl)-2-(trifluoromethyl)benzonitrile] | 0.3 | 0.0247 | 0.124 | 0.19 | 
